Results published in the NIST ThermoML archive (doi:10.1007/s10765-016-2064-y).
Numbers after ± are expanded uncertainties.

Assays:
[1] = molar heat capacity at constant pressure; details: 101.33 kPa, Liquid, Large sample (1 g) DSC
[2] = 101.33 kPa, Liquid; for speed of sound: Pulse-echo method; for mass density: Pycnometric method

CCCCCCCCBr [1-bromooctane]
[1]
Details	molar heat capacity at constant pressure [J/K/mol]
298.15 K	272.15 ± 12
303.15 K	274.7 ± 12
308.15 K	277.25 ± 12
313.15 K	279.8 ± 12
318.15 K	282.35 ± 12
323.15 K	284.92 ± 12
328.15 K	287.47 ± 12
333.15 K	290.02 ± 12
338.15 K	292.56 ± 12
343.15 K	295.11 ± 13
348.15 K	297.66 ± 13
353.15 K	300.23 ± 13
358.15 K	302.78 ± 13
363.15 K	305.33 ± 13
368.15 K	307.88 ± 13
373.15 K	310.43 ± 13
378.15 K	313 ± 13
383.15 K	315.55 ± 13
388.15 K	318.1 ± 13
393.15 K	320.64 ± 14
398.15 K	323.19 ± 14
403.15 K	325.76 ± 14
408.15 K	328.31 ± 14
413.15 K	330.86 ± 14
418.15 K	333.41 ± 14
423.15 K	335.96 ± 14

CCCCCCCCCBr [1-bromononane]
[1]
Details	molar heat capacity at constant pressure [J/K/mol]
298.15 K	308.3 ± 13
303.15 K	310.56 ± 13
308.15 K	312.82 ± 13
313.15 K	315.1 ± 13
318.15 K	317.36 ± 13
323.15 K	319.61 ± 14
328.15 K	321.87 ± 14
333.15 K	324.15 ± 14
338.15 K	326.41 ± 14
343.15 K	328.67 ± 14
348.15 K	330.92 ± 14
353.15 K	333.2 ± 14
358.15 K	335.46 ± 14
363.15 K	337.72 ± 14
368.15 K	339.98 ± 14
373.15 K	342.26 ± 15
378.15 K	344.51 ± 15
383.15 K	346.77 ± 15
388.15 K	349.03 ± 15
393.15 K	351.31 ± 15
398.15 K	353.57 ± 15
403.15 K	355.82 ± 15
408.15 K	358.08 ± 15
413.15 K	360.36 ± 15
418.15 K	362.62 ± 15
423.15 K	364.88 ± 15

CCCCCCCBr [1-bromoheptane]
[1]
Details	molar heat capacity at constant pressure [J/K/mol]
298.15 K	249.39 ± 11
303.15 K	251.24 ± 11
308.15 K	253.07 ± 11
313.15 K	254.91 ± 11
318.15 K	256.75 ± 11
323.15 K	258.58 ± 11
328.15 K	260.43 ± 11
333.15 K	262.27 ± 11
338.15 K	264.1 ± 11
343.15 K	265.94 ± 11
348.15 K	267.77 ± 11
353.15 K	269.61 ± 11
358.15 K	271.46 ± 12
363.15 K	273.29 ± 12
368.15 K	275.13 ± 12
373.15 K	276.98 ± 12
378.15 K	278.8 ± 12
383.15 K	280.65 ± 12
388.15 K	282.47 ± 12
393.15 K	284.32 ± 12
398.15 K	286.16 ± 12
403.15 K	287.99 ± 12
408.15 K	289.83 ± 12
413.15 K	291.68 ± 12
418.15 K	293.51 ± 12
423.15 K	295.35 ± 13

CCCCCCBr [1-bromohexane]
[1]
Details	molar heat capacity at constant pressure [J/K/mol]
298.15 K	219.66 ± 9.3
303.15 K	221.28 ± 9.4
308.15 K	222.9 ± 9.5
313.15 K	224.51 ± 9.5
318.15 K	226.13 ± 9.6
323.15 K	227.77 ± 9.7
328.15 K	229.38 ± 9.7
333.15 K	231 ± 9.8
338.15 K	232.62 ± 9.9
343.15 K	234.24 ± 9.9
348.15 K	235.87 ± 10
353.15 K	237.49 ± 10
358.15 K	239.11 ± 10
363.15 K	240.72 ± 10
368.15 K	242.34 ± 10
373.15 K	243.96 ± 10
378.15 K	245.59 ± 10
383.15 K	247.21 ± 10
388.15 K	248.83 ± 11
393.15 K	250.45 ± 11
398.15 K	252.06 ± 11
403.15 K	253.68 ± 11
408.15 K	255.32 ± 11
413.15 K	256.93 ± 11
418.15 K	258.55 ± 11
423.15 K	260.17 ± 11

CCCCCCCCCCCCBr [1-bromododecane]
[1]
Details	molar heat capacity at constant pressure [J/K/mol]
298.15 K	399.29 ± 17
303.15 K	402.38 ± 17
308.15 K	405.47 ± 17
313.15 K	408.56 ± 17
318.15 K	411.65 ± 17
323.15 K	414.75 ± 18
328.15 K	417.84 ± 18
333.15 K	420.93 ± 18
338.15 K	424.02 ± 18
343.15 K	427.11 ± 18
348.15 K	430.2 ± 18
353.15 K	433.26 ± 18
358.15 K	436.35 ± 19
363.15 K	439.44 ± 19
368.15 K	442.53 ± 19
373.15 K	445.62 ± 19
378.15 K	448.72 ± 19
383.15 K	451.81 ± 19
388.15 K	454.9 ± 19
393.15 K	457.99 ± 19
398.15 K	461.08 ± 20
403.15 K	464.14 ± 20
408.15 K	467.23 ± 20
413.15 K	470.32 ± 20
418.15 K	473.41 ± 20
423.15 K	476.5 ± 20

CCCCCCCCCCCCCCBr [1-tetradecyl bromide]
Details	mass density, [2] [kg/m3]	molar heat capacity at constant pressure, [1] [J/K/mol]	speed of sound, [2] [m/s]
298.15 K	1012.2 ± 1.2	450.84 ± 19	1277.2 ± 3.3
303.15 K	1008.1 ± 1.2	454.08 ± 19	1260.6 ± 3.3
308.15 K	1003.9 ± 1.2	457.3 ± 19	1244.1 ± 3.3
313.15 K	999.8 ± 1.2	460.54 ± 20	1227.9 ± 3.2
318.15 K	995.7 ± 1.2	463.79 ± 20	1211.9 ± 3.2
323.15 K	991.6 ± 1.2	467.03 ± 20	1196 ± 3.2
328.15 K	987.4 ± 1.2	470.27 ± 20	1180.4 ± 3.2
333.15 K	983.3 ± 1.2	473.52 ± 20	1164.9 ± 3.1
338.15 K	979.1 ± 1.3	476.73 ± 20	1149.6 ± 3.1
343.15 K	974.9 ± 1.3	479.98 ± 20	1134.5 ± 3.1
348.15 K	970.8 ± 1.3	483.22 ± 20	1119.5 ± 3.1
353.15 K	966.6 ± 1.3	486.47 ± 21	1104.6 ± 3
358.15 K	962.4 ± 1.3	489.71 ± 21	1089.9 ± 3
363.15 K	958.2 ± 1.3	492.93 ± 21	1075.3 ± 3
368.15 K	954 ± 1.3	496.17 ± 21	1060.9 ± 3
373.15 K	949.8 ± 1.3	499.42 ± 21	1046.5 ± 3
378.15 K	945.6 ± 1.3	502.66 ± 21	1032.3 ± 2.9
383.15 K	941.3 ± 1.3	505.9 ± 21	1018.2 ± 2.9
388.15 K	937.1 ± 1.3	509.15 ± 22	1004.2 ± 2.9
393.15 K	932.9 ± 1.3	512.37 ± 22	990.2 ± 2.9
398.15 K	928.6 ± 1.3	515.61 ± 22	976.4 ± 2.9
403.15 K	924.4 ± 1.3	518.85 ± 22	962.6 ± 2.8
408.15 K	920.1 ± 1.3	522.1 ± 22	948.9 ± 2.8
413.15 K	915.9 ± 1.3	525.34 ± 22	935.3 ± 2.8
418.15 K	911.6 ± 1.3	528.56 ± 22	921.7 ± 2.8
423.15 K	907.4 ± 1.3	531.8 ± 23	908.1 ± 2.8

CCCCCCCCCCCBr [1-bromoundecane]
[1]
Details	molar heat capacity at constant pressure [J/K/mol]
298.15 K	373.22 ± 16
303.15 K	375.72 ± 16
308.15 K	378.21 ± 16
313.15 K	380.7 ± 16
318.15 K	383.19 ± 16
323.15 K	385.69 ± 16
328.15 K	388.18 ± 16
333.15 K	390.67 ± 17
338.15 K	393.17 ± 17
343.15 K	395.66 ± 17
348.15 K	398.15 ± 17
353.15 K	400.62 ± 17
358.15 K	403.12 ± 17
363.15 K	405.61 ± 17
368.15 K	408.1 ± 17
373.15 K	410.6 ± 17
378.15 K	413.09 ± 18
383.15 K	415.58 ± 18
388.15 K	418.08 ± 18
393.15 K	420.57 ± 18
398.15 K	423.06 ± 18
403.15 K	425.56 ± 18
408.15 K	428.02 ± 18
413.15 K	430.52 ± 18
418.15 K	433.01 ± 18
423.15 K	435.5 ± 18

CCCCCCCCCCBr [1-bromodecane]
[1]
Details	molar heat capacity at constant pressure [J/K/mol]
298.15 K	334.38 ± 14
303.15 K	336.85 ± 14
308.15 K	339.35 ± 14
313.15 K	341.85 ± 15
318.15 K	344.35 ± 15
323.15 K	346.85 ± 15
328.15 K	349.35 ± 15
333.15 K	351.85 ± 15
338.15 K	354.33 ± 15
343.15 K	356.83 ± 15
348.15 K	359.33 ± 15
353.15 K	361.82 ± 15
358.15 K	364.32 ± 15
363.15 K	366.82 ± 16
368.15 K	369.32 ± 16
373.15 K	371.8 ± 16
378.15 K	374.3 ± 16
383.15 K	376.8 ± 16
388.15 K	379.3 ± 16
393.15 K	381.8 ± 16
398.15 K	384.3 ± 16
403.15 K	386.8 ± 16
408.15 K	389.27 ± 17
413.15 K	391.77 ± 17
418.15 K	394.27 ± 17
423.15 K	396.77 ± 17
